From patent publication US20220251143A1, “NON-HYDROLYZABLE NON-CLEAVABLE, STABLE LINKERS FOR PRECISION THERAPEUTICS AND USES THEREOF” (THE TRUSTEES OF COLUMBIA UNIVERSITY IN THE CITY OF NEW YORK, priority 2019, published 2022)
Bridge positions count the residues as written; N and C are the ends. Square brackets hold non-standard residues; d marks the D form. Peptide text beside a SMILES is read from it. * marks the point of attachment. DM1Mal(CH2)2CO = COc1cc2cc(c1Cl)N(C)C(=O)C[C@H](OC(=O)[C@H](C)N(C)C(=O)CCSC1CC(=O)N(CCC(=O)*)C1=O)[C@]1(C)O[C@H]1[C@H](C)[C@@H]1C[C@@](O)(NC(=O)O1)[C@H](OC)/C=C/C=C(\C)C2; X1 = COc1cc2cc(c1Cl)N(C)C(=O)C[C@H](OC(=O)[C@H](C)N(C)C(=O)CCSC1CC(=O)N(CCCC(=O)*)C1=O)[C@]1(C)O[C@H]1[C@H](C)[C@@H]1C[C@@](O)(NC(=O)O1)[C@H](OC)/C=C/C=C(\C)C2; d2Nal = N[C@H](Cc1ccc2ccccc2c1)C(=O)O; PEG2 = NCCOCCOCCC(=O)O

Legend:
[1] = Stability of aqueous solutions at 4° C.; type: physicochemical; details: preliminary studies
Excerpt: (§1) Conjugate composition comprising DM1 and lanreotide and the non-hydrolyzable, non-cleavable, stable linker GMBS was synthesized as shown in Scheme 1. Briefly, the primary amine of lanreotide was protected with Boc20. The reaction of the second amine group of the protected lanreotide with the NHS ester of GMBS gave the intermediate GMBS-lanreotide. The reaction of the maleimide of GMBS-lanreotide with the sulfhydryl group (—SH) of DM1 gave a protected conjugate. De-protection of the Boc with TFA provided the final product. All compounds were fully characterized and purified to >95% as determined by NMR and LC-MS analyses. The purity of the compound for animal studies is >98%.
as §1, with “PEG” for “GMBS”, “2.” for “1.”, “PEG-lanreotide.” for “GMBS-lanreotide.”, “PEG-lanreotide” for “GMBS-lanreotide”

[2] = system: neuroendocrine prostate cancer (NEPC) organoids; details: three days
Excerpt: A neuroendocrine prostate cancer (NEPC) cell line was used and NEPC organoids were generated.
CellTiter-Glo Luminescent Cell Viability assay measured viable cells. The percentage of viable cells after drug treatment compared to vehicle control (DMSO) was used to generate a dose—response curve.

[3] = system: SSTR2 expression in NEC1 (NCI-H82) cells; assay: SSTR2 expression by quantitative PCR, NEC1; type: cell-based; details: within 72 hours, 1 or 3 nanomolar romidepsin or 1 micromolar entinostat
Experimental: (§2) Three neuroendocrine cell lines, NEC1 (NCI—H82), NEC2 (Kelly), and NEC3 (H727), were incubated in media containing 1 or 3 nanomolar romidepsin (EA1) or 1 micromolar entinostat (EA2) or without drug at 37° C. under 5% CO2 for 72-96 hours after which time cellular RNA was harvested and expression of the SSTR determined.
(§3) Somatostatin receptor expression was measured by quantitative PCR using primers for SSTR2.

[4] = system: SSTR2 expression in NEC2 (Kelly) cells; assay: SSTR2 expression by quantitative PCR, NEC2; type: cell-based; details: within 72 hours, 1 or 3 nanomolar romidepsin or 1 micromolar entinostat
Experimental: as §2, §3

[5] = system: SSTR2 expression in NEC3 (H727) cells; assay: SSTR2 expression by quantitative PCR, NEC3; type: cell-based; details: within 72 hours, 1 or 3 nanomolar romidepsin or 1 micromolar entinostat
Experimental: as §2, §3

Row | Compound | stability of aqueous solutions [1] | effectiveness compared with conjugate with cleavable, hydrolysable linker (MCC) ([2]; NEPC organoids) | activity in NEPC organoids (viable cells) ([2]; 1 uM to 0.00046 uM) | induction of the somatostatin receptor (SSTR2 expression) [3] | induction of the somatostatin receptor (SSTR2 expression) [4] | induction of the somatostatin receptor (SSTR2 expression) [5]
1 | COc1cc2cc(c1Cl)N(C)C(=O)C[C@H](OC(=O)[C@H](C)N(C)C(=O)CCSC1CC(=O)N(CCCC(=O)N[C@H](Cc3ccc4ccccc4c3)C(=O)N[C@H]3CSSC[C@H](C(=O)N[C@H](C(N)=O)[C@@H](C)O)NC(=O)[C@H](C(C)C)NC(=O)[C@H](CCCCN)NC(=O)[C@@H](Cc4c[nH]c5ccccc45)NC(=O)[C@H](Cc4ccc(O)cc4)NC3=O)C1=O)[C@]1(C)O[C@H]1[C@H](C)[C@@H]1C[C@@](O)(NC(=O)O1)[C@H](OC)/C=C/C=C(\C)C2 (stereo partly shown) [DM1-GMBS-Lanreotide] (X1-[d2Nal]CY[dW]KV[dC]T-NH2; disulfide 2-7) | stable at 4 °C for months | – | – | – | – | –
2 | COc1cc2cc(c1Cl)N(C)C(=O)C[C@H](OC(=O)[C@H](C)N(C)C(=O)CCSC1CC(=O)N(CCC(=O)NCCOCCOCCC(=O)N[C@H](Cc3ccc4ccccc4c3)C(=O)N[C@H]3CSSC[C@H](C(=O)N[C@H](C(N)=O)[C@@H](C)O)NC(=O)[C@H](C(C)C)NC(=O)[C@H](CCCCN)NC(=O)[C@@H](Cc4c[nH]c5ccccc45)NC(=O)[C@H](Cc4ccc(O)cc4)NC3=O)C1=O)[C@]1(C)O[C@H]1[C@H](C)[C@@H]1C[C@@](O)(NC(=O)O1)[C@H](OC)/C=C/C=C(\C)C2 (stereo partly shown) [DM1-PEG-Lanreotide] ({DM1Mal(CH2)2CO-PEG2}-[d2Nal]CY[dW]KV[dC]T-NH2; disulfide 2-7) | stable at 4 °C for months | more effective | effective and active | – | – | –
3 | Nc1ccccc1NC(=O)c1ccc(CNC(=O)OCc2cccnc2)cc1 [entinostat] | – | – | – | Induction of the somatostatin receptor | Induction of the somatostatin receptor | Induction of the somatostatin receptor
